Measurements reported in patent US20170368082A1, “FORMULATIONS OF BRINCIDOFOVIR” (priority 2016, published 2017).

Assays:
[1] = Sterilization filter compatibility; type: physicochemical
Description: Formulations of the disclosure were evaluated for sterilization filter compatibility. Aliquots of a testing brincidofovir formulation were filtered through the corresponding syringe filters as follows:
A: Filter: 0.2 μm, 25 mm, syringe filter, Supor® membrane (PES), sterile; testing solution: 10 mg/mL brincidofovir, 200 mM sodium phosphate, pH=8.0; testing volume: 10 mL. B: Filter: 0.2 μm, 25 mm, syringe filter, Posidyne® membrane, sterile; testing solution: 10 mg/mL brincidofovir, 200 mM sodium phosphate, pH=8.0; testing volume: 10 mL. C: Filter: 0.22 μm, 33 mm, syringe filter, Durapore® PVDF membrane, γ-irradiated; testing solution: […] brincidofovir, 4 mM sodium phosphate, pH-8, approx. 5% dextrose (50× dilution of 10 mg/mL brincidofovir, 200 mM sodium phosphate, pH=8.0 with 5% dextrose solution; testing volume: 50 mL.
The first and last 10% of the filtrate were collected. Samples of the collected filtrates, along with samples of the pre filtration formulation, were assessed for their appearance, pH, and c(BCV).

[2] = 7-day dose range-finding study, 2-hour IV infusion (Phase 2): toxicity; type: in vivo, Sprague-Dawley CD rats
Description: For Phase 2, Sprague-Dawley CD® rats (5/sex/group) were dosed with brincidofovir via 2-hour IV infusion with 0 [2× sodium phosphate buffer solution (400 mM, pH 8.0±0.04)], 1 or 15 mg/kg on Days 1, 4 and 7. The dose volume was 10 mL/kg/hr for all groups. At the end of the Phase 2 treatment period, all animals were euthanized and necropsied. Phase 2 satellite animals (3/sex/Group 1 and 6/sex/Group 2-3) were similarly dosed and blood samples collected on Days 1 and 7 for toxicokinetic analysis of brincidofovir and one of its metabolites, cidofovir.
For Phase 2 (DRF), the test and control articles were administered, via intravenous 2-hour IV infusion to rats on Days 1, 4, and 7.
During Phase 2, each animal received brincidofovir administrations via intravenous infusion (2-hours) on Days 1, 4 and 7. Animals were maintained on sterile saline at a rate of 0.5 mL/hour between doses. Catheters were tied off after the completion of dose administration on Day 7 (a knot was placed in the catheter and the catheter was receded under the skin) and jackets were removed.
Blood obtained via the orbital sinus (retrobulbar venous plexus) as a terminal procedure under light isoflurane anesthesia was used to analyze hematology and clinical chemistry parameters for all animals at termination of dosing. Animals were fasted overnight prior to blood collection. Animals were not allowed to recover from anesthesia after blood collection.
Blood samples (approximately 0.25 mL) were collected into tubes containing K2EDTA anticoagulant and analyzed for the following using a Siemens ADVIA 120 Hematology Analyzer: Hemoglobin concentration (HGB); Hematocrit (HCT); Erythrocyte count (RBC); Platelet count (PLT); Mean corpuscular volume (MCV); Mean corpuscular hemoglobin (MCH); Mean corpuscular hemoglobin concentration (MCHC); Red cell distribution width (RDW); Total leukocyte count (WBC); Reticulocyte count (RETIC); Differential leukocyte count (Manual differential leukocyte counts were performed for verification and absolute values were calculated if necessary); Neutrophils (ANEU); Lymphocytes (ALYM); Eosinophils (AEOS); Basophils (ABASO); Monocytes (AMONO); Large unstained cells (ALUC);
Blood samples (approximately 1 mL) were collected into tubes with no anticoagulant, allowed to clot, centrifuged to obtain serum and analyzed for the following using a Siemens ADVIA 1800 Chemistry Analyzer: Aspartate aminotransferase (AST) (Kinetic—Modified Bergmeyer); Alanine aminotransferase (ALT) (Kinetic—Modified Bergmeyer); Alkaline phosphatase (ALKP) (Kinetic—Tietz AMP Buffer); Blood urea nitrogen (BUN) (Enzymatic Roch-Ramek with Urease); Creatinine (CREAT) (Jaffe Picric Acid in Alkaline Medium); Glucose (GLU) (Glucose Hexokinase II Method); Cholesterol (CHOL) (Enzymatic esterase/oxidase Trinder Endpoint); Triglycerides (TRIG) (Fossati Three Step Enzymatic—Trinder Endpoint); Total protein (TP) (Biuret Technique); Albumin (ALB) (Bromocresol Green Method); Total bilirubin (TBILI) (Oxidation with Vandate); Sodium (NA^+) (Ion Selective Electrode); Potassium (K^+) (Ion Selective Electrode); Chloride (Cr) (Ion Selective Electrode); Calcium (Ca′) (Michaylova & Ilkova, Arsenazo III); Inorganic phosphorus (PHOS) (Phosphomolybdate—UV Method).
Complete macroscopic examinations were performed on all Phase 2 main study animals. The macroscopic examination included examination of the external surface and all orifices; the external surfaces of the brain and spinal cord; the organs and tissues of the cranial, thoracic, abdominal and pelvic cavities and neck; and the remainder of the carcass for the presence of macroscopic morphologic abnormalities. Animals were discarded after examination; no tissues were collected or preserved.

[3] = Plasma BCV PK following single dose oral tablet administration (Table 105); type: in vivo; conditions: human; for AUC(0-inf) / Cmax: plasma, po
[4] = PES filter membrane, first 10% filtrate volume
[5] = PES filter membrane, last 10% filtrate volume
[6] = PES filter membrane, pre filtration
[7] = PVDF filter membrane, first 10% filtrate volume
[8] = PVDF filter membrane, last 10% filtrate volume
[9] = PVDF filter membrane, pre filtration
[10] = Posidyne filter membrane, first 10% filtrate volume
[11] = Posidyne filter membrane, last 10% filtrate volume
[12] = Posidyne filter membrane, pre filtration
[13] = 100 mg, 100 mg Oral Tablet, N = 52, geometric mean
[14] = 200 mg, 200 mg Oral Tablet, N = 15, geometric mean
[15] = 200 mg, 200 mg Oral Tablet, N = 63, geometric mean
[16] = 350 mg, 350 mg Oral Tablet, N = 70, geometric mean

For CCCCCCCCCCCCCCCCOCCCOP(=O)(O)CO[C@H](CO)Cn1ccc(N)nc1=O [Brincidofovir], the Appearance [1, 4] was “Clear,”, the “Measured pH” value [1, 4] was 8.0 and the “Observed c(BCV)” value [1, 4] was 9.8 mg/mL. For the same compound, the Appearance [1, 5] was “Clear,”, the “Measured pH” value [1, 5] was 8.0 and the “Observed c(BCV)” value [1, 5] was 9.8 mg/mL. For the same compound, the Appearance [1, 6] was “Clear,”, the “Measured pH” value [1, 6] was 8.1 and the “Observed c(BCV)” value [1, 6] was 9.9 mg/mL. The Appearance [1, 7] was “Clear,”, the “Measured pH” value [1, 7] was 8.1 and the “Observed c(BCV)” value [1, 7] was 0.20 mg/mL. For the same compound, the Appearance [1, 8] was “Clear,”, the “Measured pH” value [1, 8] was 8.1 and the “Observed c(BCV)” value [1, 8] was 0.20 mg/mL. The Appearance [1, 9] was “Clear,”, the “Measured pH” value [1, 9] was 8.0 and the “Observed c(BCV)” value [1, 9] was 0.20 mg/mL. For the same compound, the Appearance [1, 10] was “Clear,”, the “Measured pH” value [1, 10] was 8.0 and the “Observed c(BCV)” value [1, 10] was 9.7 mg/mL. For the same compound, the Appearance [1, 11] was “Clear,”, the “Measured pH” value [1, 11] was 8.0 and the “Observed c(BCV)” value [1, 11] was 9.8 mg/mL. The Appearance [1, 12] was “Clear,”, the “Measured pH” value [1, 12] was 8.1 and the “Observed c(BCV)” value [1, 12] was 9.9 mg/mL. For the same compound, the Tolerability ([2]; 1 and 15 mg/kg/day, Days 1, 4 and 7) was “well tolerated”, the Clinical signs ([2]; 1 or 15 mg/kg/day) was “did not result in any brincidofovir-related clinical signs” and the “Decrease in red cell mass vs controls (to)” value ([2]; end of 7-day dosing phase) was −4.2%. For the same compound, the “Change in reticulocytes vs controls” value ([2]; females, 15 mg/kg) was −30%, the “Change in urea (BUN) vs controls” value ([2]; females, 15 mg/kg) was “+29%” and the “Change in total calcium vs controls” value ([2]; females, ≧1 mg/kg) was “+4.9%”. For the same compound, the “Change in MCHC vs controls” value ([2]; males, 15 mg/kg) was “+2.1%”, the “Change in total calcium vs controls” value ([2]; males, 15 mg/kg) was “+3.8%” and the “Change in reticulocytes vs controls” value ([2]; males, 15 mg/kg, Days 1, 4, 7) was −33%. It also gave a half-life ([3]; 100 mg Oral Tablet, N = 52, geometric mean) of 7.62 h, a half-life ([3]; 200 mg Oral Tablet, N = 15, geometric mean) of 12 h and an AUC(0-inf) [3, 13] of 1380 ng·h/mL. It also gave a Cmax [3, 13] of 258 ng/mL, an AUC(0-inf) [3, 14] of 3310 ng·h/mL and a Cmax [3, 14] of 622 ng/mL. The AUC(0-inf) [3, 15] was 3740 ng·h/mL, the Cmax [3, 15] was 802 ng/mL and the AUC(0-inf) [3, 16] was 6940 ng·h/mL. For the same compound, the Cmax [3, 16] was 1480 ng/mL.
